From publication PMC9028889 (Pharmaceuticals, 2022)
pEC50: −log10 of the molar value.

Legend:
[1] = tested on: MCF10A cells; test: clonogenic survival / colony formation assay, MCF10A; assay type: cell-based, human; settings: for pEC50: MCF-10A, clonogenic survival assay, human normal immortalized mammary epithelial cell line; for colony formation: MCF10A, 0, 1, 5, and 10 μM, 2 weeks
Procedure: (§1) MCF10A, T47D, and MB231 cells (5 × 10^3) were seeded in 24-well plates, and cells were exposed to different CMC conjugates at different concentrations (0, 1, 5, and 10 μM) for 2 weeks, changing the medium for every 3 days with respective CMC conjugates at the indicated concentrations. After 2 weeks, cells were washed with PBS and fixed in 100% methanol for 30 min followed by staining with KaryoMax Giemsa stain for 1 h. The unfound dyes were removed by washing the wells with water and dried overnight at room temperature. Finally, cells were lysed with lysis buffer (1% SDS in 0.2 N NaOH) for 5 min, and the absorbance of the released dye was measured at 630 nm, as described before. Values are shown as mean ± SD of three experiments with 3 wells in each, for a total of 9 repeats.

[2] = tested on: T47D cells; test: clonogenic survival / colony formation assay, T47D; assay type: cell-based, human; settings: for pEC50: Homo sapiens, T47D, clonogenic survival assay, ER+ BC cell line; for colony formation: T47D, 0, 1, 5, and 10 μM, 2 weeks
Procedure: as §1

[3] = tested on: MB231 cells; test: clonogenic survival / colony formation assay, MB231; assay type: cell-based, human; settings: for pEC50: Homo sapiens, clonogenic survival assay, TNBC cell line; for colony formation: MB231, 0, 1, 5, and 10 μM, 2 weeks
Procedure: as §1

[4] = tested on: normal C57BL/6 mice; test: toxicity study in normal C57BL/6 mice; assay type: in vivo; settings: 50 and 100 mg/kg body, oral gavage daily for 7 days; for morphology (kidney, liver, lung): H&E
Procedure: We tested whether the synthesized conjugates are free of toxicity and safer to use in human normal cells and animal models. We treated human normal immortalized cell line (MCF10A) and normal C57BL/6 mice at different concentrations and time points.
Administration of CMC compounds to the mice: For toxicity studies, CMC1 and CMC2 conjugates at two different concentrations (50 and 100 mg/kg body) were given oral gavage daily for 7 days. At the end of the experiment, animals were euthanized, kidneys, liver, and lungs were analyzed for morphological changes. We also collected blood samples to measure Creatinine using a Creatinine assay kit (obtained from Millipore Sigma, Burlington, MA, USA, Catalog # MAK080), Alanine aminotransferase (ALT), using an ALT assay kit (obtained from the Millipore Sigma, Catalog #MAK053), Aspartate aminotransferase (AST), using an AST assay kit obtained from Millipore Sigma, Catalog #MAK055), and blood urea and nitrogen (BUN), using a urea nitrogen assay kit (obtained from ThermoFisher Scientific, Waltham, MA, USA, Catalog #EIABUN) as per the manufacturer’s instruction.

[5] = tested on: MMTV–PyMT–Tg mice; test: spontaneous mouse mammary tumor model; assay type: in vivo; settings: 10 mg/kg body, three times a week by oral gavage for 7 weeks
Procedure: We chose MMTV–PyMT–Tg mouse mainly because the tumor formation and progression in this mouse is characterized by four different stages (hyperplasia, adenoma/mammary intra-epithelial neoplasia, early and late carcinoma) and also mimics human BC; the tumor develops first as ER-positive (ER^+) but ultimately becomes ER-negative BC (ER^− BC). We randomly assigned 6-week-old MMTV–PyMT–Tg mice into two groups (6 mice in each); one control and one CMC2 treated (10 mg/kg body, three times a week by oral gavage for 7 weeks). We measured the tumor volume twice a week. Tumor volume was calculated using the formula V = L × W^2/2, where L represents the largest tumor diameter, and W represents the smallest tumor diameter. Mice were euthanized after seven weeks of treatment, and tumor tissues were collected. The total tumor weight was measured. Tumor tissue sections were prepared and stained with Hematoxylin and Eosin (H&E) for morphometric analysis and Ki67 for cell proliferation analysis.
Similarly, six-week-old MMTV–PyMT–Tg mice were grouped into two groups—one control and one CMC2 treatment. The control mice received PBS, and the CMC2-treated group received CMC2 conjugate (10 mg/kg body by oral gavage, three times a week) for 7 weeks. We monitored animal weight and measured the tumor volume twice a week. At the end of the experimental period, mice were euthanized, and tumor tissues were harvested and measured for tumor weight. Tumor tissues were processed to extract RNA and protein and fixed in 10% buffered formalin phosphate solution (obtained from Fisher Scientific, Catalog #SF100-4) for morphological analysis.

[6] = tested on: MCF10A cells; test: MTT cell proliferation assay, MCF10A; assay type: cell-based, human; settings: MCF10A, 0, 1, 5, and 10 μM, 72 h
Procedure: (§2) MCF10A, T47D, and MB231 cells (5 × 10^3) were seeded in 96-well plates and incubator at 37 °C with 5% CO2 in MEGM, DMEM, and RPMI medium (100 μL), respectively. After 24 h, the medium was replaced with the CMC conjugates at different concentrations (0, 1, 5, and 10 μM) for 72 h. After 72 h, 10 μL MTT reagent was added to each well and incubated for 2 h for the formation of purple formazan and then added 100 μL detergent to dissociate the formazan precipitate and measured at 570 nm. Values are shown as mean ± SD of three experiments with 3 wells in each, a total of 9 repeats.

[7] = tested on: T47D cells; test: MTT cell proliferation assay, T47D; assay type: cell-based, human; settings: T47D, 0, 1, 5, and 10 μM, 72 h
Procedure: as §2

[8] = tested on: MB231 cells; test: MTT cell proliferation assay, MB231; assay type: cell-based, human; settings: MB231, 0, 1, 5, and 10 μM, 72 h
Procedure: as §2

COc1cc(/C=C/C(=O)/C=C(O)/C=C/c2ccc(OC(=O)C(Cl)Cl)c(OC)c2)ccc1OC(=O)C(Cl)Cl [CMC1, ((1E,3Z,6E)-3-Hydroxy-5-oxohepta-1,3,6-triene-1,7-diyl)bis(2-methoxy-4,1-phenylene) bis(2,2-dichloroacetate)]
pEC50 [1]: 5.05 | pEC50 [2]: 5.78 | pEC50 [3]: 6.37 | body weight [4]: no changes | kidney functions (serum creatinine and blood urea and nitrogen) [4]: no changes | liver functions (ALT and AST) [4]: no changes | morphology (kidney, liver, lung) [4]: no changes

COc1cc(/C=C/C(=O)/C=C(O)/C=C/c2ccc(OC(=O)CNC(=O)C(Cl)Cl)c(OC)c2)ccc1OC(=O)CNC(=O)C(Cl)Cl [CMC2, ((1E,3Z,6E)-3-Hydroxy-5-oxohepta-1,3,6-triene-1,7-diyl)bis(2-methoxy-4,1-phenylene) bis(2-(2,2-dichloroacetamido)acetate)]
pEC50 [1]: 5.01 | pEC50 [2]: 5.85 | pEC50 [3]: 6.11 | body weight [4]: no changes | kidney functions (serum creatinine and blood urea and nitrogen) [4]: no changes | liver functions (ALT and AST) [4]: no changes | morphology (kidney, liver, lung) [4]: no changes | lung nodules [5]: reducing | normal body weight and organ histology [5]: without affecting | overall survival rate [5]: increased | tumor cell proliferation (Ki67) in mammary and lung tumor tissue [5]: inhibiting | tumor growth [5]: significantly reduced

COc1cc(/C=C/C(=O)/C=C(O)/C=C/c2ccc(OC(=O)[C@H](C)NC(=O)C(Cl)Cl)c(OC)c2)ccc1OC(=O)[C@H](C)NC(=O)C(Cl)Cl [CMC3, ((1E,3Z,6E)-3-Hydroxy-5-oxohepta-1,3,6-triene-1,7-diyl)bis(2-methoxy-4,1-phenylene) (2S,2’S)-bis(2-(2,2-dichloroacetamido)propanoate)]
pEC50 [1]: 5.01 | pEC50 [2]: 5.80 | pEC50 [3]: 6.29

COc1cc(/C=C/C(=O)/C=C(O)/C=C/c2ccc(OC(=O)CCNC(=O)C(Cl)Cl)c(OC)c2)ccc1OC(=O)CCNC(=O)C(Cl)Cl [CMC4, ((1E,3Z,6E)-3-Hydroxy-5-oxohepta-1,3,6-triene-1,7-diyl)bis(2-methoxy-4,1-phenylene) bis(3-(2,2-dichloroacetamido)propanoate)]
pEC50 [1]: 5.05 | pEC50 [2]: 5.90 | pEC50 [3]: 5.95 | melting point: 140 to 142 °C

COc1cc(/C=C/C(=O)/C=C(O)/C=C/c2ccc(OC(=O)[C@H](Cc3ccccc3)NC(=O)C(Cl)Cl)c(OC)c2)ccc1OC(=O)[C@H](Cc1ccccc1)NC(=O)C(Cl)Cl [CMC5, ((1E,3Z,6E)-3-Hydroxy-5-oxohepta-1,3,6-triene-1,7-diyl)bis(2-methoxy-4,1-phenylene) (2S,2’S)-bis(2-(2,2-dichloroacetamido)-3-phenylpropanoate)]
pEC50 [1]: 5.02 | pEC50 [2]: 5.90 | pEC50 [3]: 6.08

COc1cc(/C=C/C(=O)/C=C(O)/C=C/c2ccc(OC(=O)CCCNC(=O)C(Cl)Cl)c(OC)c2)ccc1OC(=O)CCCNC(=O)C(Cl)Cl [CMC6, ((1E,3Z,6E)-3-Hydroxy-5-oxohepta-1,3,6-triene-1,7-diyl)bis(2-methoxy-4,1-phenylene) bis(4-(2,2-dichloroacetamido)butanoate)]
pEC50 [1]: 5.02 | pEC50 [2]: 5.86 | pEC50 [3]: 6.03 | melting point: 130 to 132 °C

COc1cc(/C=C/C(=O)CC(=O)/C=C/c2ccc(O)c(OC)c2)ccc1O [CUR, Curcumin, reference compound]
colony formation [1]: not | colony formation [2]: inhibited | colony formation [3]: inhibited | cell viability / proliferation (MTT) [6]: not | cell viability / proliferation (MTT) [7]: inhibited | cell viability / proliferation (MTT) [8]: inhibited

O=C(O)C(Cl)Cl [DCA, Dichloroacetate, reference compound]
colony formation [1]: not | colony formation [2]: inhibited | colony formation [3]: inhibited | cell viability / proliferation (MTT) [6]: not | cell viability / proliferation (MTT) [7]: inhibited | cell viability / proliferation (MTT) [8]: inhibited
